Laboratory results from paper PMC8748916, “Microbial enzymes induce colitis by reactivating triclosan in the mouse gastrointestinal tract” (Nature Communications, 2022).
Where “and” joins values, the source holds several entries; their conditions need not be identical. Equal values may be shown once.

What was measured:
DSS-induced colitis = DSS-induced colitis in mice: TCS with or without GUSi (colon length, histology, FACS, qRT-PCR); assay type: in vivo
Excerpt: After another 3 weeks, the mice were stimulated with 2% DSS (molecular weight = 36–50 KDa, MP Biomedicals, Solon, OH) in drinking water for 6 days to induce colitis. At end of the experiment, the mice were sacrificed for analysis.
(§1) Total RNA of colon tissues and MC38 cells were isolated using Trizol reagent (Ambion) according to the manufacturer’s instruction. RNA was reverse transcribed into cDNA using the High Capacity cDNA Reverse Transcription kit (Applied Biosystem) according to the manufacturer’s instructions. In all, 20 μL PCR reactions were prepared using the Maxima SYBR Green Master Mix (Thermo Fisher Scientific), and qPCR was carried out using a DNA Engine Opticon System (Bio-Rad Laboratories). Mouse-specific primer sequences (Thermo Fisher Scientific) used to detect inflammatory biomarkers are listed in Supplementary Table S6. Gapdh expression was used as an internal control.
Distal colon tissues were dissected, washed with cold PBS, and digested with Hank’s balanced salt solution (HBSS, Lonza) supplemented with 1 mM dithiothreitol (DTT) and 5 mM EDTA at 4 °C (colon […] cells). The released cells were stained with FITC-conjugated anti-mouse CD45 (BioLegend, Clone: 30-F11), PerCP/Cy5.5-conjugated anti-mouse F4/80 (BioLegend, Clone: BM8), and PE/Cy7-conjugated anti-mouse Ly-6G/Ly-6C (GR-1) (BioLegend, Clone: RB6-8C5) with a 1:100 diluted solution. Cells were stained with Zombie Violet^TM dye (Zombie Violet^TM Fixable Viability Kit; BioLegend) according to the manufacturer’s instructions to exclude dead cells. Gating and cell identification strategies are as follows: briefly, cell doublets and clumps were eliminated using FSC-A gating and debris was eliminated using FSC-A vs SSC-A. Dead cells were gated out using Zombie Violet™ dye. Flow cytometry data were acquired on a BD LSR Fortessa^TMcell analyzer (Becton Dickinson, Franklin Lakes, NJ) and analyzed using FlowJo software (FlowJo, LLC). Gating strategies used for the identification of major immune cell populations are shown in Supplementary Fig. S17.
The dissected colon tissues were fixed in 10% neutral buffered formalin (Thermo Fisher Scientific) for 48 h. After dehydration, the tissues were embedded in paraffin and sliced ([…]) by Rotary Microtome (Thermo Fisher Scientific). The slices were dewaxed in serial xylene and rehydrated through ethanol solutions, stained with hematoxylin and eosin (Sigma-Aldrich), and images were obtained under 200× magnification (BZ-X700 microscope, Keyence, Itasca, IL). The histologic scores were evaluated by a blinded observer according to the following measures: crypt architecture, degree of inflammatory cell infiltration, muscle thickening, goblet cell depletion, and crypt abscess. The histologic damage score is the sum of each individual score.

[1] = LC-MS/MS of TCS and its metabolites in human stool and urine after use of TCS-containing personal care products; assay type: in vivo; settings: for TCS metabolites in human stool / TCS metabolites in human urine: Treatment TCS, individual subjects; for average molar concentration ratio: TCS-exposed subjects;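 on Profile in stool (%): molar share of summed TCS plus TCS-G plus TCS-sulfate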;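 on Profile in urine (%): molar share of summed TCS plus TCS-G plus TCS-sulfate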;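 on average molar concentration ratio: molar share of summed TCS plus TCS-G plus TCS-sulfate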
Excerpt: To broaden our understanding of TCS metabolic profiles in the gut, we next analyzed TCS metabolism in human subjects. We utilized urine and stool samples from a previous study in which the recruited human subjects were first subjected to a washout period (no usage of TCS-containing products), then were randomly assigned to two groups that used personal care products like toothpaste with or without TCS for up to four months (see the scheme of the experiment in Fig. 1c)[15]. Previous data had established that humans are primarily exposed to TCS via toothpaste that provides a direct oral route to the gastrointestinal tract[16],[17].

[2] = Antibiotic suppression of gut microbiota: TCS colonic metabolism in mice (80 ppm TCS diet, 4 weeks); assay type: in vivo; settings: 80 ppm TCS via diet 4 weeks; antibiotic cocktail vs none
Excerpt: This antibiotic composition was used in previous studies by others[20],[21] and us[22],[23]. […] After another 4 weeks, the mice were sacrificed, and their tissues were collected for LC-MS/MS analysis.

[3] = TCS colonic metabolism in conventional vs germ-free Swiss Webster mice; assay type: in vivo; settings: 6 h after oral gavage of 8 mg/kg TCS, individual mice
MC38 cells = experiment: Inflammatory response of MC38 intestinal epithelial cells (Il-6 RT-qPCR, IL-6 ELISA); assay type: cell-based, mouse
Description: MC38 intestinal epithelial cells were cultured in Dulbecco’s Modified Eagle Medium (DMEM) supplemented with 10% fetal bovine serum (FBS) and incubated at 37 °C under an atmosphere of 5% CO2. MC38 cells were seeded at 20% confluency and left to settle overnight. Cells were then treated with either 1 μM TCS, TCS-G, or vehicle (DMSO). After 48 h, cells were harvested for RT-qPCR analysis. Cell medium was collected for ELISA analysis using the CBA Mouse Inflammation Kit (BD Sciences) according to the manufacturer’s instructions, and data were acquired using a BD LSR Fortessa flow cytometer (BD Biosciences) and analyzed using FlowJo software (Treestar).
as §1
a. Cultured murine intestinal epithelial MC38 cells were treated with 1 μM of TCS or TCS-G for 48 h prior to
studying inflammatory responses. b. TCS increases the expression of Il-6, which encodes the pro-inflammatory
n = 3 per group from three independent experiments, * P < 0.05, ** P < 0.01, *** P < 0.001.

[4] = LC-MS/MS profiling of TCS metabolism in mice (TCS via diet for 4 weeks); settings: for concentration of TCS, TCS-G, TCS-Sulfate: individual mice
[5] = Antibiotic suppression of gut microbiota: kinetics of TCS colonic metabolism after one-time oral gavage; settings: within the 24-h period; 8 mg/kg TCS oral gavage
[6] = DSS colitis mice, FACS, individual animals, Fig.5d
[7] = DSS colitis mice, gene expression, individual animals, Fig.5e
[8] = treatment time 0 months (after washout)

C1CCc2c(c(N3CCOCC3)nc3sc4c(N5CCNCC5)nnnc4c23)C1 [GUSi, UNC10201652]
colitis-enhancing effects of TCS with co-administration of GUSi (DSS-induced colitis; 1 mg/kg GUSi via oral gavage, 80 ppm TCS via diet, DSS-induced colitis, all measures): eliminated
cd45+(%) (DSS-induced colitis; [6]): 3.37% and 1.44% and 2.8% and 3.35% and 3.49% and 6.62% and 4.63% and 3.22%
f4/80+ (%) (DSS-induced colitis; [6]): 5.88% and 5.56% and 2.33% and 7.14% and 0% and 1.72%
gr-1+ (%) (DSS-induced colitis; [6]): 0% and 2.94% and 5.56% and 1.43% and 2.13%
Il-6 (DSS-induced colitis; [7]): 0.5774 and 0.763 and 0.8366 and 0.5822 and 0.577 and 0.6095
Il-17 (DSS-induced colitis; [7]): 0.5948 and 0.2298 and 0.792 and 0.6818 and 0.4596 and 0.7005
Il-23 (DSS-induced colitis; [7]): 0.7347 and 0.9268 and 1.245 and 0.9397 and 0.6326 and 1.199
Mcp1 (DSS-induced colitis; [7]): 0.841 and 0.7995 and 1.048 and 0.7621 and 1.517 and 1.4734 and 0.8163
Tnf-α (DSS-induced colitis; [7]): 1.652 and 0.2802 and 0.2939 and 0.2088 and 0.6209 and 0.7192
HE (DSS-induced colitis; DSS colitis mice, histology score, individual animals, Fig.5c): 4 and 3 and 6
colon length (cm) (DSS-induced colitis; DSS colitis mice, individual animals, Fig.5b): 6.9 cm and 7.5 cm and 7.1 cm and 7.2 cm and 6.7 cm

O=C(O)C1OC(Oc2cc(Cl)ccc2Oc2ccc(Cl)cc2Cl)C(O)C(O)C1O (stereo not shown) [TCS-G, triclosan-glucuronide]
Profile in urine (%) ([1]; TCS-exposed human subjects, n=7 urine samples): 98.39%
Profile in stool (%) ([1]; TCS-exposed human subjects, n=23 stool samples): 0.80%
TCS metabolites in human stool [1, 8]: 10.69 pmol/ g stool and 5.96 pmol/ g stool and < LOD and 10.80 pmol/ g stool
TCS metabolites in human urine [1, 8]: 18.4 nM urine and 3.47 nM urine and < LOD and 12.5 nM urine
TCS metabolites in human stool ([1]; treatment time 1 month): 10.24 pmol/ g stool and 13.69 pmol/ g stool and < LOD (3×) and 2.81 pmol/ g stool
TCS metabolites in human urine ([1]; treatment time 1 month): 626 nM urine
TCS metabolites in human stool ([1]; treatment time 2 months): 3.18 pmol/ g stool and 2.97 pmol/ g stool and < LOD (2×) and 4.42 pmol/ g stool
TCS metabolites in human urine ([1]; treatment time 2 months): 953 nM urine
TCS metabolites in human stool ([1]; treatment time 3 months): 7.01 pmol/ g stool and 5.96 pmol/ g stool and < LOD (3×) and 6.49 pmol/ g stool
TCS metabolites in human urine ([1]; treatment time 3 months): 771 nM urine
TCS metabolites in human stool ([1]; treatment time 4 months): 7.57 pmol/ g stool and < LOD (3×) and 3.12 pmol/ g stool and 4.69 pmol/ g stool
TCS metabolites in human urine ([1]; treatment time 4 months): 1037 nM urine and 70.9 nM urine and 1373 nM urine and 775 nM urine
average molar concentration ratio ([1]; human stool): 0.8%
average molar concentration ratio ([1]; human urine): 98.4%
change of concentration in the fecal content by antibiotic treatment [2]: sixfold
tcs, tcs-G in colon digesta ([3]; CONV Swiss Webster mice): 0.05 pmol/mg and 0.09 pmol/mg and 0.07 pmol/mg and 0.08 pmol/mg and 0.03 pmol/mg and 0.02 pmol/mg
tcs, tcs-G in colon digesta ([3]; GF Swiss Webster mice): 3.55 pmol/mg and 2.97 pmol/mg and 3.05 pmol/mg and 2.08 pmol/mg and 2.61 pmol/mg
Il-6 gene expression (MC38 cells; 1 µM, 48 h): does not
Il-6 (Fig. S16b) (MC38 cells; MC38 cells, gene expression, replicates): 1.072 and 0.7026 and 0.674 and 0.599 and 2.104 and 1.745 and 1.341 and 2.8489 and 1.88
IL-6 (Fig. S16c) (MC38 cells; MC38 cells, protein, replicates): 30.76 pg/mL and 26.1 pg/mL and 35.84 pg/mL and 30.49 pg/mL and 20.04 pg/mL and 13.78 pg/mL and 35.28 pg/mL and 36.12 pg/mL and 25.88 pg/mL
concentration of TCS, TCS-G, TCS-Sulfate ([4]; Cecum (digesta), 80 ppm TCS via diet 4 weeks): 0.45 pmol/mg and 0.99 pmol/mg and 0.44 pmol/mg and 0.88 pmol/mg and 0.62 pmol/mg and 0.91 pmol/mg
concentration of TCS, TCS-G, TCS-Sulfate ([4]; Colon digesta, 1 ppm TCS in diet 4 weeks): 0 pmol/mg
concentration of TCS, TCS-G, TCS-Sulfate ([4]; Colon digesta, 10 ppm TCS in diet 4 weeks): 0.02 pmol/mg
concentration of TCS, TCS-G, TCS-Sulfate ([4]; Colon digesta, 80 ppm TCS in diet 4 weeks): 0.1 pmol/mg
concentration of TCS, TCS-G, TCS-Sulfate ([4]; Feces, 1 ppm TCS in diet 4 weeks): 0.06 pmol/mg
concentration of TCS, TCS-G, TCS-Sulfate ([4]; Feces, 10 ppm TCS in diet 4 weeks): 0.13 pmol/mg
concentration of TCS, TCS-G, TCS-Sulfate ([4]; Feces, 80 ppm TCS in diet 4 weeks): 0.35 pmol/mg and 0.43 pmol/mg
concentration of TCS, TCS-G, TCS-Sulfate ([4]; Heart, 80 ppm TCS via diet 4 weeks): 2.11 pmol/mg and 1.13 pmol/mg and 0.90 pmol/mg and 1.39 pmol/mg
concentration of TCS, TCS-G, TCS-Sulfate ([4]; SI 1st section (digesta), 80 ppm TCS via diet 4 weeks): 14.84 pmol/mg and 26.51 pmol/mg and 44.77 pmol/mg and 37.15 pmol/mg
concentration of TCS, TCS-G, TCS-Sulfate ([4]; SI 2nd section (digesta), 80 ppm TCS via diet 4 weeks): 56.00 pmol/mg and 24.46 pmol/mg and 19.60 pmol/mg and 25.12 pmol/mg and 26.25 pmol/mg and 17.70 pmol/mg and 32.78 pmol/mg and 21.27 pmol/mg and 57.45 pmol/mg and 7.43 pmol/mg
concentration of TCS, TCS-G, TCS-Sulfate ([4]; SI 3rd section (digesta), 80 ppm TCS via diet 4 weeks): 27.59 pmol/mg and 32.96 pmol/mg and 20.86 pmol/mg and 36.42 pmol/mg and 26.32 pmol/mg and 29.79 pmol/mg and 32.41 pmol/mg and 48.40 pmol/mg and 60.13 pmol/mg and 35.24 pmol/mg
concentration of TCS, TCS-G, TCS-Sulfate ([4]; SI 4th section (digesta), 80 ppm TCS via diet 4 weeks): 46.08 pmol/mg and 59.25 pmol/mg and 48.99 pmol/mg and 79.17 pmol/mg and 94.49 pmol/mg and 43.76 pmol/mg and 46.26 pmol/mg and 23.11 pmol/mg and 8.33 pmol/mg and 51.24 pmol/mg
share of TCS metabolites found ([4]; digesta of the 4th section of the mouse small intestine, 80 ppm TCS via diet 4 weeks): 55.4%
share of TCS metabolites found ([4]; fecal content, 80 ppm TCS via diet 4 weeks): 0.7%
increase of AUC in colon digesta by antibiotic treatment [5]: ~ 200 fold
